Reference: patent US6833377B2, “Composition and method for potentiating drugs” (priority 2001, dated 2004)
Values joined by “and” are separate entries in the source; they are usually repeats but may differ in a detail not shown here. Identical values can stand only once. Like-named read-outs stand apart in the source and are kept apart here.

Legend:
[1] = test system: behavioral depression caused by a toxic dose of MPTP; test: Forced swimming test after a toxic dose of MPTP (30 mg/kg IM); assay type: in vivo, rats
Procedure: In a forced swimming test, the ability of amitriptyline and its compositions to eliminate the effect of toxic doses of MPTP was studied. Single administration of high MPTP doses (30 mg/kg) causes acute suppression of motor activity (akinesis), catalepsy, and muscular rigidity. Antidepressants reduce behavioral depression caused by a single administration of toxic doses of MPTP. The behavioral depression was studied in a forced swimming test of a group of active rats after the administration of a toxic dose of MPTP (30 mg/kg IM). Swimming duration (maximal swimming duration—10 min) and the time of forced immobilization during the first 5 min of swimming (under the condition that swimming duration exceeds 5 min) was estimated in the forced swimming test 30 min after MPTP administration. Drugs were administered IM or IG 30 min before MPTP administration.
To estimate the potentiation of the effects of amitriptyline (its ability to reduce toxic effects of MPTP), the minimal effective dose of amitriptyline in the composition, which increased swimming time up to 9-10 min and reduced immobilization time during the first 5 min of swimming down to 20-30 sec was determined.

[2] = test system: rats with MPTP-depression; test: Porsolt's test, rats with MPTP depression (MPTP 15 mg/kg IM); assay type: in vivo; conditions: drug alone
Procedure: (§1) Antidepressive effects was studied by Porsolt's test [Porsolt R. D., Anton G., Blavet N., Jalfre M. Eur. J. Pharmacol.(1978), 47(4):379-91]. For each rat under study, the total immobilization time was determined during 10 min of forced swimming in a glass vessel at a water temperature of 22° C. The animals were subdivided into three groups according to their immobilization time: highly-, medium- and low-active (immobilization time below 80 sec. 100-140 sec and above 150 sec, respectively).
(§2) I. N., Kryzhanovskii G. N. Biull. Eksp. Biol. Med. (1995) 120(8): 160-3] 30 min before testing at a dose of 15 mg/kg. […] (60 min before a repeated examination in Porsolt's test), and also to low-active rats 30 min. before a repeated study in Porsolt's test.
(§3) To determine the degree of potentiation of the effect of antidepressants, their minimal effective dose within the compositions, which caused a maximal antidepressive effect (immobilization time—below 80 s) in low-active rats and in rats with MPTP-depression was determined.

[3] = test system: low-active rats; test: Porsolt's test, low-active rats; assay type: in vivo; conditions: drug alone
Procedure: as §1, §2, §3

[4] = test system: pentylenetetrazole seizures; conditions: diazepam alone, pentylenetetrazole 70 mg/kg
Procedure: (§4) For these studies, solutions of the composition of the invention were used, which. were prepared using distilled water immediately before administration. The solutions were administered either orally (IG), by a rigid metal probe into the cardiac section of the stomach at a total amount of 0.8 ml, or intramuscularly (IM) at an amount of 0.2 ml, 30 min before testing.
Anticonvulsive effects of drugs and their compositions was studied on the model of pentetrazole seizures [Parsons C. G . Quack G., Bresink I., Baran L., Przegalinski F., Kostowski. W., Krzascik P., Hartmann. S., Danysz W. Neuropharmacology (1995) 34(10):1239-1258).
To estimate the potentiation of diazepam effect, its minimal effective dose in the composition preventing clonico-tonic and clonic seizures in 80% of rats was determined.

[5] = test system: reflex of tail flicking; test: Tail-flick test (analgesic effect); assay type: in vivo, rats; conditions: drug alone
Procedure: as §4
The analgesic effect of the components was estimated by an extension of the latent period of the reflex of tail flicking in the “tail-flick” test [Woolf C. J., Barret G. D., Mitchel D., Myers R. A. (1977) Eur. J. Pharmacol. 45(3);311-314] and of the reflex of hind leg flicking in the hyperalgesia test [Coderre T. J., Melzack R. Brain Res. (1987) 404(1-2):95-106].
For the “tail-flick” test, hyperalgesic rats were selected (latent period of tail flicking on placing into water with a temperature of 51° C. was 3-4 sec).

[6] = test system: phenaminic stereotypy; test: Phenaminic stereotypy (antipsychotic effect of haloperidol); assay type: in vivo, rats; conditions: haloperidol alone, phenamine 10 mg/kg IM
Procedure: (§5) Antipsychotic effect of neuroleptics was studied using the model of behavioral toxicity “MK-toxicity” caused by a blocker of NMDA receptors MK-801 (Lapin T. P., Rogawski M. A. Behav. Brain Res. (1995) 70(2):145-151) and a model of phenaminic stereotypy caused by phenamine (Kuczenski R., Schmidt D, Leith N. Brain Res. (1977), 126(1):117-129).
(§6) The minimal effective dose of the neuroleptic haloperidol necessary to completely prevent the development of “MK-toxicity” (MK-801 at a dose of 0.4 mg/kg IM) and phenaminic stereotypy (phenamine at a dose of 10 mg/kg IM) in 80% of the rats was calculated. To estimate the potentiation of the antipsychotic effect of haloperidol, the minimal effective dose of haloperidol in compositions, which completely prevents the development of MK-toxicity and phenaminic stereotypy in rats, was determined.

[7] = test system: MK-toxicity; test: MK-toxicity (behavioral toxicity caused by MK-801); assay type: in vivo, rats; conditions: haloperidol alone, at this dose only ataxia eliminated, MK-toxicity only partially eliminated
Procedure: as §5, §6

[8] = test system: catalepsy caused by haloperidol; test: Haloperidol catalepsy (inclined grid); assay type: in vivo, rats; conditions: for Minimal effective dose of memantine eliminating catalepsy (immobilization time on an inclined grid below 40 seconds), haloperidol 1 mg/kg / Minimal effective dose of memantine eliminating catalepsy (immobilization time on an inclined grid below 40 seconds), haloperidol 3 mg/kg: memantine alone; for Minimal effective dose of memantine eliminating catalepsy (immobilization time on an inclined grid below 40 seconds), haloperidol 3 mg/kg: catalepsy only partially eliminated at this dose (immobilization time 60-70 seconds)
Procedure: Haloperidol catalepsy is a test for selecting anti-parkinson agents [Campbell A., Baldessarini R. J. Cremens M. C. Neuropharmacology (1988), 27(11):1197-9; Ossowska K. J. Neural. Transm. Park. Dis. Dement. Sect. (1994) 8(1-2):39-71]. Catalepsy degree was estimated by the immobilization time (in sec) of a rat placed on a coarse-mesh grid at an angle of 45° during a 3-minute exposition [Campbell A., Baldessarini R. J., Cremens M. C. Neuropharmacology (1988) 27(11):1197-9 ] 30, 60, 90 and 120 minutes after haloperidol administration. Maximal catalepsy was attained in 40-60 minutes after haloperidol administration (immobilization time on the grid was 140-180 sec) and lasted from 2 to 6 hours depending on the dose of haloperidol (1 or 3 mg/kg). The minimal effective dose of the anti-parkinson agent memantine causing a maximal anticataleptic effect (immobilization time on an inclined grid less than 40 sec) 1 hour after haloperidol administration at a dose of 1 and 3 mg/kg was calculated.
To estimate the potentiation effect of memantine, the minimal effective dose of memantine in the composition causing a maximal anticataleptic effect was determined.

[9] = test system: phenaminic stereotypy; test: Potentiation of phenaminic stereotypy (psychostimulant effect of phenamine); assay type: in vivo, rats; conditions: phenamine + distilled water
Procedure: The potentiation of the effect of psychostimulants was studied using the model of phenaminic stereotypy [Kuczenski R., Schmidt D., Leith N. Brain Res. (1977), 126(1):117-29]. Phenamine at a dose of 10 mg/kg IM, or 20 mg/kg IG, causes a marked behavioral stereotypy. To estimate the potentiation effect of phenamine, a phenamine dose in the IM or IG introduced composition was determined, which causes the same stereotypy as phenamine alone at a dose of 10 mg/kg, IM or 20 mg/kg, IG.

[10] = IG, amitriptyline 30 mg/kg, alone or with phenylephrine 0.004 mg/kg
[11] = IM, amitriptyline 30 mg/kg, alone or with phenylephrine 0.002 mg/kg (text b94: 0.003)

## CN(C)CCC=C1c2ccccc2CCc2ccccc21 [Amitriptyline, amitriptyline]
[1]; [10]
  Duration of forced swimming until drowning 30 min after MPTP 30 mg/kg (maximal recorded time 600 seconds): 340 s and 340 ± 37 s
  Immobilization time during the first 5 minutes of forced swimming, 30 min after MPTP 30 mg/kg: 78 s and 78 ± 8.5 s
[1]; IM, amitriptyline 20 mg/kg
  Duration of forced swimming until drowning 30 min after MPTP 30 mg/kg (maximal recorded time 600 seconds): 220 ± 25 s
[1]; [11]
  Duration of forced swimming until drowning 30 min after MPTP 30 mg/kg (maximal recorded time 600 seconds): 410 s and 410 ± 46 s
  Immobilization time during the first 5 minutes of forced swimming, 30 min after MPTP 30 mg/kg: 61 s and 61 ± 6.3 s
[2]; IG
  Minimal effective dose of the antidepressant causing a maximal antidepressive effect (immobilization time below 80 sec), highly active rats with MPTP depression: 2.5 ± 0.5 mg/kg
[2]; IG, listed as amitriptyline
  Minimal effective dose of the antidepressant causing a maximal antidepressive effect (immobilization time below 80 sec), highly active rats with MPTP depression: 2.5 mg/kg
[2]; IM
  Minimal effective dose of the antidepressant causing a maximal antidepressive effect (immobilization time below 80 sec), highly active rats with MPTP depression: 7.0 ± 0.8 mg/kg
[2]; IM, listed as amitriptyline
  Minimal effective dose of the antidepressant causing a maximal antidepressive effect (immobilization time below 80 sec), highly active rats with MPTP depression: 7.2 mg/kg
[3]; IG
  Minimal effective dose of the antidepressant causing a maximal antidepressive effect (immobilization time below 80 sec), low-active rats: 2.0 ± 0.24 mg/kg
[3]; IG, listed as amitriptyline
  Minimal effective dose of the antidepressant causing a maximal antidepressive effect (immobilization time below 80 sec), low-active rats: 2 mg/kg
[3]; IM
  Minimal effective dose of the antidepressant causing a maximal antidepressive effect (immobilization time below 80 sec), low-active rats: 5.2 ± 0.6 mg/kg
[3]; IM, listed as amitriptyline
  Minimal effective dose of the antidepressant causing a maximal antidepressive effect (immobilization time below 80 sec), low-active rats: 5.0 mg/kg

## CN1C(=O)CN=C(c2ccccc2)c2cc(Cl)ccc21 [Diazepam]
[4]; IG
  Minimal dose of diazepam preventing clonico-tonic pentylenetetrazol seizures in 80% of rats: 2.5 mg/kg and 2.5 ± 0.3 mg/kg
[4]; IM
  Minimal dose of diazepam preventing clonico-tonic pentylenetetrazol seizures in 80% of rats: 6.7 mg/kg and 6.7 ± 0.7 mg/kg

## Cc1c(N(C)CS(=O)(=O)[O-])c(=O)n(-c2ccccc2)n1C.[Na+] [Dipyrone]
[5]; IG
  Minimal effective dose of the analgesic causing maximal analgesia in tail-flick test (latent period of tail flicking reflex more than 30 sec): 20 mg/kg and 20 ± 2.3 mg/kg

## CNCCC(Oc1ccc(C(F)(F)F)cc1)c1ccccc1 (centres unmarked) [Fluoxetine]
[2]; IM
  Minimal effective dose of the antidepressant causing a maximal antidepressive effect (immobilization time below 80 sec), highly active rats with MPTP depression: 16.2 mg/kg and 16 ± 2.1 mg/kg
[3]; IG
  Minimal effective dose of the antidepressant causing a maximal antidepressive effect (immobilization time below 80 sec), low-active rats: 5.5 mg/kg and 5.5 ± 0.7 mg/kg
[3]; IM
  Minimal effective dose of the antidepressant causing a maximal antidepressive effect (immobilization time below 80 sec), low-active rats: 10.6 mg/kg and 10.6 ± 1.2 mg/kg

## O=C(CCCN1CCC(O)(c2ccc(Cl)cc2)CC1)c1ccc(F)cc1 [Haloperidol, haloperidol]
[6]; IG
  Minimal effective dose of haloperidol completely preventing phenaminic stereotypy in 80% of rats: 0.18 ± 0.022 mg/kg
[6]; IG, listed as haloperidol
  Minimal effective dose of haloperidol completely preventing phenaminic stereotypy in 80% of rats: 0.18 mg/kg
[6]; IM
  Minimal effective dose of haloperidol completely preventing phenaminic stereotypy in 80% of rats: 0.15 ± 0.017 mg/kg
[6]; IM, listed as haloperidol
  Minimal effective dose of haloperidol completely preventing phenaminic stereotypy in 80% of rats: 0.15 mg/kg
[7]; IG
  Minimal effective dose of haloperidol completely preventing MK-toxicity (MK-801 0.4 mg/kg IM): > 1 mg/kg
[7]; IG, listed as haloperidol
  Minimal effective dose of haloperidol completely preventing MK-toxicity (MK-801 0.4 mg/kg IM): > 1 mg/kg
[7]; IM
  Minimal effective dose of haloperidol completely preventing MK-toxicity (MK-801 0.4 mg/kg IM): > 1 mg/kg
[7]; IM, listed as haloperidol
  Minimal effective dose of haloperidol completely preventing MK-toxicity (MK-801 0.4 mg/kg IM): > 1 mg/kg

## CC12CC3CC(C)(C1)CC(N)(C3)C2 [Memantine, memantine]
[8]; IG
  Minimal effective dose of memantine eliminating catalepsy (immobilization time on an inclined grid below 40 seconds), haloperidol 1 mg/kg: 11.5 mg/kg and 11.5 ± 1.2 mg/kg
  Minimal effective dose of memantine eliminating catalepsy (immobilization time on an inclined grid below 40 seconds), haloperidol 3 mg/kg: > 16.0 mg/kg
[8]; IG, listed as memantine
  Minimal effective dose of memantine eliminating catalepsy (immobilization time on an inclined grid below 40 seconds), haloperidol 3 mg/kg: > 16 mg/kg
[8]; IM
  Minimal effective dose of memantine eliminating catalepsy (immobilization time on an inclined grid below 40 seconds), haloperidol 1 mg/kg: 7.5 ± 0.7 mg/kg
  Minimal effective dose of memantine eliminating catalepsy (immobilization time on an inclined grid below 40 seconds), haloperidol 3 mg/kg: > 15.0 mg/kg
[8]; IM, listed as memantine
  Minimal effective dose of memantine eliminating catalepsy (immobilization time on an inclined grid below 40 seconds), haloperidol 3 mg/kg: > 15 mg/kg
  Minimal effective dose of memantine eliminating catalepsy (immobilization time on an inclined grid below 40 seconds), haloperidol 1 mg/kg: 7.5 mg/kg
[8]; memantine 15 mg/kg IM
  Immobilization time of rats on an inclined grid, catalepsy caused by haloperidol 3 mg/kg: 60 to 70 s
[8]; memantine 16 mg/kg IG
  Immobilization time of rats on an inclined grid, catalepsy caused by haloperidol 3 mg/kg: 60 to 70 s

## CN1CC[C@]23c4c5ccc(O)c4O[C@H]2[C@@H](O)C=C[C@H]3[C@H]1C5 [Morphine, morphine]
[5]; IG
  Minimal effective dose of the analgesic causing maximal analgesia in tail-flick test (latent period of tail flicking reflex more than 30 sec): 3 ± 0.35 mg/kg
[5]; IG, listed as morphine
  Minimal effective dose of the analgesic causing maximal analgesia in tail-flick test (latent period of tail flicking reflex more than 30 sec): 3 mg/kg
[5]; IM
  Minimal effective dose of the analgesic causing maximal analgesia in tail-flick test (latent period of tail flicking reflex more than 30 sec): 3.0 ± 0.37 mg/kg
[5]; IM, listed as morphine
  Minimal effective dose of the analgesic causing maximal analgesia in tail-flick test (latent period of tail flicking reflex more than 30 sec): 3 mg/kg

## CC(N)Cc1ccccc1 (centres unmarked) [Phenamine, phenamine]
[9]; IG
  Dose of phenamine causing the same behavioral stereotypy as phenamine 10 mg/kg IM: 20.2 ± 2.3 mg/kg
[9]; IG, listed as phenamine
  Dose of phenamine causing the same behavioral stereotypy as phenamine 10 mg/kg IM: 20 mg/kg
[9]; IM
  Dose of phenamine causing the same behavioral stereotypy as phenamine 10 mg/kg IM: 10.0 ± 1.1 mg/kg
[9]; IM, listed as phenamine
  Dose of phenamine causing the same behavioral stereotypy as phenamine 10 mg/kg IM: 10 mg/kg
